Experimental data: US20040102525A1, “Compositions and methods of treating neurological disease and providing neuroprotection” (priority 2002, published 2004)

Assays:
[1] = multiple sclerosis patients; cited from earlier work
[2] = cited from earlier work
[3] = injected directly into the VNC prior to UVD; cited from earlier work
[4] = rat, in vivo; cited from earlier work
NMDA receptors = settings: perfused, ventilated rat lungs; cited from earlier work
osteoblasts = settings: cited from earlier work
[5] = following nerve injury; cited from earlier work
neurons = settings: cited from earlier work
[6] = healthy subjects; cited from earlier work
[7] = acute, sub-anesthetic doses, normal subjects; cited from earlier work
[8] = in vivo; cited from earlier work
[9] = cited from earlier work; remark: listed apart in the source
[10] = system: inner hair cell afferents; settings: animal models; cited from earlier work
[11] = up to 2 hours after induction of hypoxia/ischemia, immature and adult rats; cited from earlier work
[12] = Tinnitus patient treated with chronic oral memantine; format: in vivo, human; settings: first patient in the USA, category I tinnitus, chronic oral 10 mg BID
Excerpt: The efficacy of current therapy for tinnitus is controversial but includes devices that mask tinnitus and TRT (tinnitus retraining therapy) which is a technique utilizing white noise for a period of time to assist the patient to habituate to their tinnitus. […] We postulate that the administration of memantine would attenuate the neurotoxicity mechanisms of cochlear disorders and tinnitus, and also attenuate any abnormal neuronal plasticity in the temporal-parietal association cortex resulting in clinical efficacy for the treatment of tinnitus.

NR1A/2B = NR1A/2B (Homo sapiens, UniProt Q05586+Q13224); settings: cited from earlier work
[13] = lesions of the entorhinal cortex; cited from earlier work
cortical cell cultures = settings: cited from earlier work
[14] = rats with experimental acute liver failure; cited from earlier work
[15] = in vivo; cited from earlier work; remark: listed apart in the source
NR2C and NR2D subunits = settings: cited from earlier work
[16] = biological target: NR2A of the NMDA receptor (Homo sapiens, UniProt Q05586+Q12879); settings: cited from earlier work
[17] = animal studies; cited from earlier work
[18] = system: L- and N type voltage-activated calcium channels, Na+ channels; settings: cited from earlier work
[19] = system: glutamate secreting tumors; settings: 25 mg/kg IP; cited from earlier work
[20] = rat, in vivo; cited from earlier work; remark: listed apart in the source
[21] = system: tumor cells including lung, rhabdomyosarcoma, medulloblastoma, and thyroid adenocarcinoma; settings: cited from earlier work
[22] = one patient; metabolic deficits by PET not totally reversed; cited from earlier work
hippocampal slices = settings: cited from earlier work
[23] = cited from earlier work; remark: listed apart in the source
[24] = moderate and severe Alzheimer's disease; cited from earlier work
[25] = EAE (Wallstrom, 1996); cited from earlier work
neuronal ganglion cell = settings: administered 4 hours after NMDA neurotoxicity; cited from earlier work
[26] = rat, brain microdialysis with in vivo recovery; cited from earlier work
[27] = animals studies; cited from earlier work
[28] = system: D2, AMPA, kainate, alpha 1, alpha 2, and 5-HT re-uptake; settings: alpha 1, alpha 2, 5-HT re-uptake; cited from earlier work
[29] = in vivo; cited from earlier work; remark: listed apart in the source
[30] = pre- or posttreatment, 20 mg/kg IP (von Euler, 1997); cited from earlier work
NMDA receptor = settings: cited from earlier work
GABA or AMPA receptors = settings: cited from earlier work
BDNF mRNA = settings: rat limbic system; cited from earlier work
[31] = parallel treatment with memantine and 3-NP; cited from earlier work
[32] = cited from earlier work; remark: listed apart in the source

Chain of NR1A/2B (Q13224 27-1484, other chains not shown): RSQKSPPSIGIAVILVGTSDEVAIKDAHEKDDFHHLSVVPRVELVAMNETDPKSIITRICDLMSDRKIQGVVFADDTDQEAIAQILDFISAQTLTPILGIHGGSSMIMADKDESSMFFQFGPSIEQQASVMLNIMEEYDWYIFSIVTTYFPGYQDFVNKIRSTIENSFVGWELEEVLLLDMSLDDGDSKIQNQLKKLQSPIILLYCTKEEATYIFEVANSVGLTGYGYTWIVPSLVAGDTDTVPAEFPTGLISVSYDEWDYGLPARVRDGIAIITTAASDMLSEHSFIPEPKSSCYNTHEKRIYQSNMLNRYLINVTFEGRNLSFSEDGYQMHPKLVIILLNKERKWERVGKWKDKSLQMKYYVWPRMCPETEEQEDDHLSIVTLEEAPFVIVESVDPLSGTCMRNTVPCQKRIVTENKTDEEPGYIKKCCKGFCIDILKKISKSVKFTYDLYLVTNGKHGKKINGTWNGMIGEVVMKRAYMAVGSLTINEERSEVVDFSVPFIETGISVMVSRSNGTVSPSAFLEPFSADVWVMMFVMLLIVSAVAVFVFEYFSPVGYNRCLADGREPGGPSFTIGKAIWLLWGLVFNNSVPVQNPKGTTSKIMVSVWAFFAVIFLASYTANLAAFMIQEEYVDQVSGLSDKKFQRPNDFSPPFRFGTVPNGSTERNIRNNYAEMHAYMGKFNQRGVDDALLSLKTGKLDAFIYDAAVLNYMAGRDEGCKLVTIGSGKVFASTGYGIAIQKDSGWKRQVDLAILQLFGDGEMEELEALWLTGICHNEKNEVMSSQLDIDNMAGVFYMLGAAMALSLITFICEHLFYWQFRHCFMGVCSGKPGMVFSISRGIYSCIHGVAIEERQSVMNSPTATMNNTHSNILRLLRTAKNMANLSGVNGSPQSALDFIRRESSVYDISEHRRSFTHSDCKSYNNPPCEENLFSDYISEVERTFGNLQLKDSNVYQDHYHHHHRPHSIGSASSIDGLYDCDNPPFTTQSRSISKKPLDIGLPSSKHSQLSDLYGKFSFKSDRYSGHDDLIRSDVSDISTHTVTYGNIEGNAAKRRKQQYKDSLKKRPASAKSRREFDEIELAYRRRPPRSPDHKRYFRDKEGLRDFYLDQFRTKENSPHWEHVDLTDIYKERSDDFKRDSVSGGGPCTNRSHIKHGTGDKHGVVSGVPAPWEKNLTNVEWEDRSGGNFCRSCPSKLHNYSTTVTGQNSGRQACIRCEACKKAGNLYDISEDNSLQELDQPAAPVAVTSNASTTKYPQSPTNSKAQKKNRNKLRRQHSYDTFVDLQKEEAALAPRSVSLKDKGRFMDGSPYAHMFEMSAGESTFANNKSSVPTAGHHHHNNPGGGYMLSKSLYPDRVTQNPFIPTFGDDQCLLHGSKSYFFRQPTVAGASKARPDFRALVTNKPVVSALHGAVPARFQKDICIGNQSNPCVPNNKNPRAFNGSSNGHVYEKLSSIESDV
Chain of NR2A of the NMDA receptor (Q12879 23-1464, other chains not shown): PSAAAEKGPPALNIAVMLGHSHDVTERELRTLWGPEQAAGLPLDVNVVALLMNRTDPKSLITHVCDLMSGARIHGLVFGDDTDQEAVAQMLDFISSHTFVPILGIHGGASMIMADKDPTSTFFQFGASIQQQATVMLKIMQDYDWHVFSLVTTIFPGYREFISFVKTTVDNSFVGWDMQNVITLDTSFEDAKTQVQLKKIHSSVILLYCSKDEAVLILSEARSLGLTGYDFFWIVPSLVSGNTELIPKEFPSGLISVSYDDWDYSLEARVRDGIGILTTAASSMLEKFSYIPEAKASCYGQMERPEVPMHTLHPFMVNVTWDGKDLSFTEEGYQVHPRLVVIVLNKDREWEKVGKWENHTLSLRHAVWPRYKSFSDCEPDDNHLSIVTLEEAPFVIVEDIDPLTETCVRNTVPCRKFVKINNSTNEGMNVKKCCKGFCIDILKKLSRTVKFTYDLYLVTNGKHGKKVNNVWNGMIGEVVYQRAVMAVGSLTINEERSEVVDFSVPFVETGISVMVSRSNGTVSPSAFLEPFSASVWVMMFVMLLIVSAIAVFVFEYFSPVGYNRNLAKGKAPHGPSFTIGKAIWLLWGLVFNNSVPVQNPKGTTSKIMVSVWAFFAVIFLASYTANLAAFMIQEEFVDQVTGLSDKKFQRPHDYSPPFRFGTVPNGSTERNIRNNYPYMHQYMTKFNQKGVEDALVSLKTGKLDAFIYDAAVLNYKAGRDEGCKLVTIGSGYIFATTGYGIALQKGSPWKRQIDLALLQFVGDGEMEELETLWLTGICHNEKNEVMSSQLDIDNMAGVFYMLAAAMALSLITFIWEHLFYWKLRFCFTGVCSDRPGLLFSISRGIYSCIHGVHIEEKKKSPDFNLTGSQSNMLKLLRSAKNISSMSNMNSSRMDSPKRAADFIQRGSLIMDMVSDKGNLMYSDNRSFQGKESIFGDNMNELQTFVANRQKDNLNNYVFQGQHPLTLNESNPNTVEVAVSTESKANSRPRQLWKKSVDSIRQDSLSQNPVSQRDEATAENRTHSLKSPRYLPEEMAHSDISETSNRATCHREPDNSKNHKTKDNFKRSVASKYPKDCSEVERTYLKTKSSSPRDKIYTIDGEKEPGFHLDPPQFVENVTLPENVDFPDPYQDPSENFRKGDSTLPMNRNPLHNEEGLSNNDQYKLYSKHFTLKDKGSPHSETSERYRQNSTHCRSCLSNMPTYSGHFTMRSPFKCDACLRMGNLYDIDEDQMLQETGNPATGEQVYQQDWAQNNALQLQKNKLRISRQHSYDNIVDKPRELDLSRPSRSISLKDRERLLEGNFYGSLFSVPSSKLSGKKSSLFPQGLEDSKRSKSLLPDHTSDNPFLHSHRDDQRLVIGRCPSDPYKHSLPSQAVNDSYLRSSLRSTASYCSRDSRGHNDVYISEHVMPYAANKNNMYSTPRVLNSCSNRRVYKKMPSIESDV

NCC1(CC(=O)O)CCCCC1 [gabapentin]
treatment of APN [1]: efficacy

C[C@]12N[C@H](Cc3ccccc31)c1ccccc12 [MK-801]
increased airway perfusion pressure produced by NMDA ([2]; NMDA): abolished | acute elevation in airway perfusion pressure by capsaicin ([2]; capsaicin): attenuated in both magnitude and duration | severity of the vestibular syndrome (SON, YHT) [3]: reduced the severity of the vestibular syndrome | cortical spreading after infarction [4]: able to inhibit cortical spreading | hyperexcitability after infarction [4]: unable to reverse the hyperexcitability | pulmonary injury by NMDA receptor activation (NMDA receptors): prevented | inward currents in response to NMDA agonist stimulation (osteoblasts): significant decrease in inward currents | motorneurone death [5]: reduced motorneurone death | neuronal loss by neurotoxic concentrations of glutamate (neurons): attenuated the neuronal loss

CNC1(c2ccccc2Cl)CCCCC1=O (stereo not shown) [ketamine]
smooth pursuit of eye movements [6]: deficits in smooth pursuit of eye movements | memory [7]: delayed memory recall and decreases in verbal and nonverbal memory

CC12CC3CC(C)(C1)CC(N)(C3)C2.Cl [memantine, 1-amino-3,5-dimethyl-adamantane hydrochloride]
therapeutic concentration that produces efficacy in Parkinson's disease [8]: less than 2 μM | hippocampal damage, convulsions and cell death induced by ICV QUIN ([9]; in vivo): prevents hippocampal damage, convulsions and cell death | memory deficits by chronic ICV infusion of QUIN ([9]; simultaneous infusion of memantine): blocked | NMDA stimulated activity of inner hair cell afferents [10]: selectively inhibit | infarct size [11]: significantly reduce infarct size | response of tinnitus [12]: successfully treated | treatment of APN [1]: efficacy | potency at NR1A/2B (NR1A/2B): intermediate potency | time to normalized learning [13]: ≤ 8 days | time to reversal of learning impairment [13]: ≤ 3 days | apoptosis induced by gp120 (cortical cell cultures): prevention of apoptosis | neurological status [14]: significant improvement | efficacy as an anti-convulsant or in epilepsy [15]: minimal efficacy | block of NR2C and NR2D subunits (NR2C and NR2D subunits): preferentially blocks | effects at NR2A [16]: weak effects | eliminating symptoms of drug withdrawal and addiction [17]: conflicting and usually negative | antagonism at L- and N type voltage-activated calcium channels, Na+ channels [18]: weak antagonist | decrease of tumor volume [19]: 25% | tumor expansion facilitated by glutamate secretion [19]: blocked | lesions of the NBM produced by mitochondrial toxins (3-NP) [20]: inhibited | striatal lesions by malonate [20]: significantly attenuated | growth of brain and systemic glutamate secreting tumors ([21]; in vitro): slow the growth | in vitro proliferation of tumor cells ([21]; lung, rhabdomyosarcoma, medulloblastoma, thyroid adenocarcinoma): decrease in vitro proliferation | levels at which in vitro proliferation was decreased ([21]; unobtainable at therapeutic human doses): 100 μM/ml | cognitive effects in alcoholic dementia [22]: reversed cognitive effects | effect on LTP in hippocampal slices (hippocampal slices; 6-10 μM): do not attenuate LTP | increase of the CA1 pyramidal cell spike (hippocampal slices; in vitro): 100% | synaptic functioning after removal of Mg++ (hippocampal slices; relevant human brain concentrations (1-μM)): normalized synaptic functioning | drug interaction with AchE (acetylcholinesterase inhibitors) ([23]; combined with AchE inhibitors): no adverse drug interaction | adverse events ([23]; dose-related): nausea, dizziness, and restlessness | hepatic toxicity ([23]; human, in vivo): minimal hepatic toxicity | patients with headache as adverse event ([23]; patients who do not suffer from migraine, mild, usually transitory, dose related): up to 10% | rate of cognitive decline [24]: efficacy in decreasing the rate of cognitive decline | effect on CNS inflammation, IFN-γ, lymphocytic proliferation, systemic immunity [25]: failed to have any effect | neuronal ganglion cell death (neuronal ganglion cell): prevention of neuronal ganglion cell death | free brain concentrations lower [26]: 20-30% | induction of HSP, neuronal vacuolization and necrosis [27]: No induction of HSP (heat shock protein) or neuronal vacuolization and necrosis | concentrations at which memantine interacts with multiple receptors [28]: greater than 100 μM | placental penetration [29]: good placental penetration | teratogenesis [29]: minimal teratogenesis | toxicity to the fetus [29]: non-toxic properties to the fetus | neurological or morphological outcome [30]: failed to attenuate | NMDA channels left unblocked (NMDA receptor): 20% | levels at which action is specific for antagonism of the NMDA receptor (NMDA receptor; does not affect other ligand-gated or voltage-gated channels): 1 to 10 µM | effect on GABA or AMPA receptors (GABA or AMPA receptors): no effect | BDNF mRNA levels (BDNF mRNA): increased BDNF mRNA levels | enhanced neuronal density drop-out in the striatum [31]: 26% | reduction in volume in the striatum [31]: 11.5% | TTP (time-to-peak concentration) ([32]; after oral intake): 6 to 8 h | decrease of CSF (cerebrospinal fluid) concentration ([32]; due to albumin binding): 20-50% | CSF concentrations lower (CSF sampling) ([32]; human subjects): 30-40% | serum levels ([32]; humans, 20 mg per day): 500 to 1000 nM | blood brain barrier penetration ([32]; in vivo): easily penetrates the blood brain barrier | plasma clearance half-life (t1/2) ([32]; in vivo): 60 to 100 h | protein binding ([32]; in vivo): 42-45% | time to steady-state plasma levels ([32]; in vivo): approximately 21 days | absorption from the gastrointestinal tract ([32]; oral): completely absorbed | plasma levels ([32]; patients treated with 10-30 mg per day): 400 to 1000 nM
